A short description of data set [1]: eLogD (shake-flask, pH 7.4). The following applies: 1-octanol/phosphate buffered saline (1:1, v/v), Shake-flask method. Type of data set: physicochemical. The method, then:
eLogD. The LogD (pH 7.4) assay was performed using a miniaturized shake flask method. A solution of a pre-saturated mixture of 1-octanol and phosphate buffered saline (PBS) (1:1, v/v) and the test compound (75 μM) was incubated at 25 °C with constant shaking (850 rpm) for 2 h. After incubation the organic and aqueous phases were separated, and samples of each phase transferred to plate for dilution. The organic phase was diluted to 1000-fold and the aqueous phase was diluted 20-fold. The samples were quantitated using LC-MS/MS. The experiment was carried out in duplicate. Propranolol, amitriptyline, and midazolam were used as reference standards.

For data set [2], the system named is P. falciparum 3D7 parasites. Description: P. falciparum 3D7 asexual stage LDH assay (72 h). In kind it is cell-based, Plasmodium falciparum. Particulars: for EC50: Plasmodium falciparum, 3D7, 72 h, LDH activity of P. falciparum 3D7 parasites over 72 h, means and SDs, three or more experiments, read-out: Pf 3D7 EC50 (SD). The method, then:
To establish the SAR, synthesized analogs were assessed against the asexual stage parasite (72 h) using LDH as a proxy for parasite growth inhibition. Cytotoxicity was monitored against the human HepG2 cell line using Cell TitreGlo as a metabolic marker for cell growth.
P. falciparum 3D7 Asexual Stage LDH Assay. This is a platform assay is routinely undertaken at the Walter and Eliza Hall Institute and details on the protocol has been previously published. Briefly, 10-point dilution series of the compounds were prepared in 384 well assay plates using an Echo555 (Labcyte). Appropriate volumes of 10 mM compound stocks were transferred into the assay plates such that the starting concentration was 1 μM, with a 1 in 3-fold dilution series. All wells were backfilled with DMSO to 40 nL such that this remained constant (0.1 % DMSO). The positive growth control was 0.1 % DMSO and the negative growth control was 100 nM chloroquine. The parasite inoculum (40 μL) was dispensed into plates containing compounds using a Multidrop Combi dispenser (Thermo Scientific). […] Following 72 h growth, plates were sealed with parafilm and frozen at −80 °C overnight. Plates were thawed at room temperature for at least 4 h prior to LDH activity being measured. […] Plates were shaken to ensure mixing and absorbance at 650 nm was measured in an EnVision (PerkinElmer) plate reader after 30 min of incubation at room temperature. […] The equation used is sigmoidal dose response (variable slope), Y = bottom + (top − bottom)/(1 + 10((logEC50 − X) × Hill Slope)).

A short description of data set [3]: Human liver microsome stability. Particulars: pooled human liver microsomes. In kind it is in vitro ADME. As to the method: Human Liver Microsome Stability. A solution of the test compounds in phosphate buffer solution (1 μM) was incubated in pooled human liver microsomes (0.5 mg/mL) for 0, 5, 20, 30, 45 and 60 min at 37 °C in the presence and absence of NADPH regeneration system. The reaction was terminated with the addition of ice-cold acetonitrile containing system suitability standard at designated time points. […] The experiment was carried out in duplicate. Verapamil, diltiazem, phenacetin, and imipramine were used as reference standards.
For orientation: Microsomes from liver hold many membrane-bound enzymes, among them those of drug oxidation.

Data set [4] is described as follows: Aqueous solubility (kinetic in PBS, pH 7.4). In kind it is physicochemical. The following applies: phosphate buffered saline. The method, then: Solubility. The solubility assay was performed using a miniaturized shake flask method. A solution of phosphate buffered saline (PBS) and the test compound (200 μM) was incubated at 25 °C with constant shaking (600 rpm) for 2 h. The samples were filtered using a multiscreen solubility filter plate. The filtrate was half diluted in acetonitrile. A five-point linearity curve was prepared in PBS:acetonitrile (1:1, v/v) at 200, 150, 75, 25 and 2.5 μM. Blank, linearity and test samples (n = 2) were transferred to a UV readable plate and the plate was scanned for absorbance. Best fit calibration curves were constructed using the calibration standards and used to determine the test sample solubility. The experiment was carried out in duplicate. Diethylstilbestrol, haloperidol, and diclofenac sodium were used as reference standards.

The nature of another data set: Rat hepatocyte stability. In kind it is in vitro ADME. Particulars: pooled rat hepatocytes. As to the method:
Rat Hepatocyte Stability. A solution of the test compound in Krebs-Henseliet buffer solution (1 μM) was incubated in pooled rat hepatocytes (1 × 10^6 cells/mL) for 0, 15,30,45, 60, 75 and 90 min at 37 °C (5 % CO2, 95 % relative humidity). The reaction was terminated with the addition of ice-cold acetonitrile containing system suitability standard at designated time points. […] The experiment was carried out in duplicate. Diltiazem, 7-ethoxy coumarin, propranolol, and midazolam were used as reference standards.

A short description of data set [5]: Human HepG2 growth inhibition assay (Cell TitreGlo, 48 h). Particulars: human, HepG2 cells, HepG2 cell growth inhibition over 48 h. In kind it is cell-based. As to the method:
To establish the SAR, synthesized analogs were assessed against the asexual stage parasite (72 h) using LDH as a proxy for parasite growth inhibition. Cytotoxicity was monitored against the human HepG2 cell line using Cell TitreGlo as a metabolic marker for cell growth. Cyt b inhibitors typically have high lipophilicity, and so calculated physicochemical properties were determined, while in vitro ADME was also collected on representative analogs to gauge their suitability for efficacy studies in a 4-day P. berghei model.
Human HepG2 Growth Inhibition Assay. This is a routine assay undertaken at the Walter and Eliza Hall Institute and the method has been previously published. HepG2 cells were cultured in Dulbeccos modified eagles medium (DMEM) supplemented with 10 % fetal calf serum (FCS), in a humidified incubator at 37 °C and 5 % CO2. Assay plates (Greiner #781098, 384 well, white, tissue culture treated) were prepared by transferring appropriate volumes of 10 mM compound stocks using an Echo555 (Labcyte) such that the starting concentration was 50 μM, with a 1:2-fold dilution series. All wells were backfilled with DMSO to […] such that this remained constant (0.5 % DMSO). The positive growth control was 0.5 % DMSO and the negative growth control was 10 μM Bortezomib. HepG2 cells were seeded with 1000 cells in 50 μL DMEM with 10 % FCS into each well of the assay plates using a Multidrop Combi dispenser (Thermo Scientific). Plates were incubated at 37 °C and 5 % CO2 for 48 h. Cytotoxicity was determined using Cell Titer Glo (Promega) and calculated as a percentage using DMSO as the positive growth control and 10 μM Bortezomib as a negative growth control. EC50 values were calculated by Dotmatics 5.3 and Spotfire 7.11.1 software using a nonlinear regression four-parameter fit analysis. The equation used is sigmoidal dose response (variable slope), Y = bottom + (top − bottom)/(1 + 10((logEC50 − X) × Hill Slope)).

≈ marks a conversion by molar mass, not a printed value.

Regarding `O=C(NC1CC1)c1ccc(CN(Cc2ccccc2)C2CC2)cc1` [Compound 17, 4-((Benzyl(cyclopropyl)amino)methyl)-N-cyclopropylbenzamide], the logD (as a rule, the decadic logarithm of the distribution of all forms, ionised or not, between an organic phase and buffer at a given pH) at 2 h in data set [1] came to 4. Besides, the EC50 (commonly the midpoint of the concentration-response curve) in data set [2] was 140 nM. Moreover, in data set [3], the intrinsic clearance (microsomal CLint) (as a rule, the capacity of the preparation to metabolise the compound, expressed as a volume cleared per time) at 1 h, 1 µM stood at 72 µL/min/mg. In data set [4], the solubility – broadly, the dissolved amount per volume that the medium holds – at 2 h came out at 44 µM (≈ 14.1 µg/mL). In addition, the intrinsic clearance (hepatocyte CLint) (as a rule, the capacity of the preparation to metabolise the compound, expressed as a volume cleared per time) at 1 μM in “Rat hepatocyte stability” is more than 92 µL/min/1e6 cells. Besides, in data set [5], the CC50 – broadly, the concentration at which the toxic effect on the cells reaches its halfway point – at 48 h is more than 40000 nM.
`CC(C)N(Cc1ccccc1)Cc1ccc(C(=O)NC2CC2)cc1` [Compound 21, 4-((Benzyl(isopropyl)amino)methyl)-N-cyclopropylbenzamide]: in data set [1], the logD at 2 h was determined as 3.5. The EC50 in data set [2] was 160 nM. Moreover, the microsomal CLint at 1 h, 1 µM in data set [3] is 76 µL/min/mg. In data set [4], this compound registered a solubility at 2 h of 140 µM (≈ 45.1 µg/mL). The compound also displayed a hepatocyte CLint at 1 μM in the data set “Rat hepatocyte stability” of more than 92 µL/min/1e6 cells. This compound also registered a CC50 at 48 h in data set [5] of more than 40000 nM.
For the compound `O=C(NC1CC1)c1ccc(CN(Cc2ccccc2)C2CCC2)cc1` [Compound 22, 4-((Benzyl(cyclobutyl)amino)methyl)-N-cyclopropylbenzamide], the logD at 2 h in data set [1] was 3.8. In data set [2], the EC50 was determined as 160 nM. The compound further returned a microsomal CLint at 1 h, 1 µM in data set [3] of 151 µL/min/mg. This compound showed a solubility at 2 h in data set [4] of 92 µM (≈ 30.8 µg/mL). In “Rat hepatocyte stability”, this compound returned a hepatocyte CLint at 1 μM of more than 92 µL/min/1e6 cells. The same compound gave a CC50 at 48 h in data set [5] of more than 40000 nM.
`O=C(NC1CC1)c1ccc(CN(Cc2ccccc2)CC(F)(F)F)cc1` [Compound 25, 4-((Benzyl(2,2,2-trifluoroethyl)amino)methyl)-N-cyclopropylbenzamide] returned a log distribution coefficient (logD) at 2 h in data set [1] of 4.8. In addition, the EC50 in data set [2] was 260 nM. Also, in data set [3], the microsomal CLint at 1 h, 1 µM was determined as 79 µL/min/mg. Also, the concentration in solution in data set [4] (solubility at 2 h) came to 11 µM (≈ 3.99 µg/mL). In addition, the intrinsic clearance (hepatocyte CLint) at 1 μM in the data set “Rat hepatocyte stability” was more than 92 µL/min/1e6 cells. Further, the CC50 at 48 h in data set [5] is more than 40000 nM.
In data set [1], `CCCN(Cc1ccccc1)Cc1ccc(C(=O)NC2CC2)cc1` [Compound 26, 4-((Benzyl(propyl)amino)methyl)-N-cyclopropylbenzamide] displayed a log distribution coefficient (logD) at 2 h of 3.7. Further, the concentration for a half-maximal effect (EC50) in data set [2] was found to be 130 nM. Also, in data set [3], the microsomal CLint at 1 h, 1 µM was determined as 98 µL/min/mg. In data set [4], this compound returned a solubility at 2 h of 83 µM (≈ 26.8 µg/mL). In the data set “Rat hepatocyte stability”, the hepatocyte CLint at 1 μM was more than 92 µL/min/1e6 cells. The compound further yielded a CC50 at 48 h in data set [5] of more than 40000 nM.
In the case of `CC(C)N(Cc1ccc(C(=O)NC2CC2)cc1)C1CC1` [Compound 91, N-Cyclopropyl-4-((cyclopropyl(isopropyl)amino)methyl)benzamide], in data set [2], the EC50 came out at 2600 nM. In data set [5], this compound registered a CC50 at 48 h of more than 40000 nM.
The matching figures for `CC(C)(C)CN(Cc1ccc(C(=O)NC2CC2)cc1)C1CC1` [Compound 93]: 460 nM and more than 40000 nM.
In the case of `O=C(NC1CC1)c1ccc(CN(CC2CCC2)C2CC2)cc1` [Compound 94], the EC50 in data set [2] was found to be 520 nM. For the same compound, in data set [5], the CC50 at 48 h is more than 40000 nM.
For `O=C(NC1CC1)c1ccc(CN(CC2CCCC2)C2CC2)cc1` [Compound 95], in that order: 510 nM and more than 40000 nM.
The matching figures for `O=C(NC1CC1)c1ccc(CN(CC2CCCCC2)C2CC2)cc1` [Compound 96]: 240 nM and more than 40000 nM.
As to `CC(c1ccccc1)N(Cc1ccc(C(=O)NC2CC2)cc1)C1CC1` (centres unmarked) [Compound 97, N-Cyclopropyl-4-((cyclopropyl(1-phenylethyl)amino)methyl)benzamide], the pH-dependent lipophilicity (logD) at 2 h in data set [1] came out at 4.2. The EC50 in data set [2] came out at 170 nM. Further, the microsomal CLint at 1 h, 1 µM in data set [3] stood at 238 µL/min/mg. In data set [4], this compound gave a solubility at 2 h of 22 µM (≈ 7.36 µg/mL). This compound also registered a hepatocyte CLint at 1 μM in the data set “Rat hepatocyte stability” of more than 92 µL/min/1e6 cells. In data set [5], this compound displayed a CC50 at 48 h of more than 40000 nM.
For the compound `CC(c1ccc(C(=O)NC2CC2)cc1)N(Cc1ccccc1)C1CC1` (centres unmarked) [Compound 98, 4-(1-(Benzyl(cyclopropyl)amino)ethyl)-N-cyclopropylbenzamide], the EC50 in data set [2] is 340 nM. For the same compound, in data set [2] (ratio of EC50 to compound 17), the “fold decrease in Pf 3D7 activity relative to 17” value is recorded as 2 fold. Besides, the CC50 at 48 h in data set [5] was more than 40000 nM.
For the compound `O=C(NC1CC1)c1ccc(CN(C2CC2)S(=O)(=O)c2ccccc2)cc1` [Compound 101], the EC50 in data set [2] stood at 2300 nM. In addition, the half-maximal cytotoxic concentration (CC50) at 48 h in data set [5] is more than 40000 nM.
For `O=C(NC1CC1)c1ccc(S(=O)(=O)N(Cc2ccccc2)C2CC2)cc1` [Compound 102, 4-(N-Benzyl-N-cyclopropylsulfamoyl)-N-cyclopropylbenzamide], in that order: 4800 nM and more than 40000 nM.
As to `O=C(NC1CC1)c1ccc(CN(Cc2ccccc2)C2CC2)cn1` [Compound 103, 5-((Benzyl(cyclopropyl)amino)methyl)-N-cyclopropylpicolinamide], in data set [2], the 50% effective concentration (EC50) amounted to 7600 nM. The CC50 at 48 h in data set [5] was more than 40000 nM.
The matching figures for `O=C(NC1CC1)c1ccc(CN(Cc2ccccc2)C2CC2)nc1` [Compound 104, 6-((Benzyl(cyclopropyl)amino)methyl)-N-cyclopropylnicotinamide]: 3500 nM and more than 40000 nM.
The matching figures for `O=C(NC1CC1)c1cnc(CN(Cc2ccccc2)C2CC2)s1` [Compound 105, 2-((Benzyl(cyclopropyl)amino)methyl)-N-cyclopropylthiazole-5-carboxamide]: 2400 nM and more than 40000 nM.

(Values after article PMC11609934, “Exploration and characterization of the antimalarial activity of cyclopropyl carboxamides that target the mitochondrial protein, cytochrome b” (European Journal of Medicinal Chemistry, 2024).)
